Measured values: paper PMC5046141, “Discovery of Isoquinolinoquinazolinones as a Novel Class of Potent PPARγ Antagonists with Anti-adipogenic Effects” (Scientific Reports, 2016)

Tests used:
[1] = Cytotoxicity in 3T3-L1 cells; assay type: cell-based; settings: mouse, read-out: cell viability
Description: Prior to testing the PPARγ antagonist potential of isoquinolinoquinazolinones, their cytotoxicity in 3T3-L1 cells (normal cells) was examined. […] These two compounds were then tested for PPARγ inhibitory activity.

3T3-L1 cells = test: Expression of adipogenesis markers (immunoblotting, RT-PCR) in MDI-differentiated 3T3-L1 cells; assay type: cell-based, mouse; settings: after MDI-induced differentiation
Description: PPARγ alone or together with CCAAT-enhancer-binding protein α (C/EBPα) regulates many adipocyte genes that are involved in creating and maintaining the adipocyte phenotype. To further analyze the effect of isoquinolinoquinazolinones on adipogenesis, the expression of the adipocyte marker genes (C/EBPα and PPARγ) was analyzed. The differentiation of 3T3-L1 cells into adipocytes was induced by incubating in MDI induction medium for 2 days followed by incubation in differentiation medium for an additional 6 days. After MDI-induced adipocyte differentiation of 3T3-L1 cells, adipogenic transcriptional factors were analyzed. The transcriptional factors C/EBPα and PPARγ were inhibited by 8n and 8o in terms of both protein (Fig. 2C,D) and RNA (Fig. 2E,F) levels.
Total cellular RNA was prepared using TRIzol reagent (Life Technologies) according to the manufacturer’s instructions. Random-primed cDNAs were synthesized from 1 μg of total RNA using Super-Script III First-Strand Synthesis System (Life Technologies). The following conditions were used for PCR: initial denaturation at 94 °C for 1 min; 28–30 cycles of denaturation at 94 °C for 30 s, annealing at a temperature optimized for each primer pair for 30 s, extension at 72 °C for 30 s; final extension at 72 °C for 5 min. […] RNA levels were quantified by image software, Multi Gauge, V3.0 (FUJIFILM).
At the end of differentiation, 3T3-L1 cells were washed with PBS and lysed in a lysis buffer (1% NP-40, 25 mM HEPES (pH 7.5), 10% glycerol, 150 mM NaCl, 25 mM NaF, 0.25% sodium deoxycholate, 1 mM EDTA, 1 mM Na3VO4, 10 μg/mL aprotinin, 10 μg/mL leupeptin, and 250 μM phenylmethanesulfonyl fluoride). […] Horseradish peroxidase-labeled secondary antibodies were detected and visualized using chemiluminescent western blotting reagent (Millipore). Protein expression levels were quantified by image software, Multi Gauge, V3.0 (FUJIFILM).

PPARγ2-LBD = molecular target: T1, PPARγ2-LBD (Mus musculus, UniProt P37238); test: Surface plasmon resonance binding to immobilized PPARγ2-LBD; settings: for Kd / kon / koff: SPR, 25 °C, PBS; for Kd: read-out: KD (equilibrium dissociation constant); for kon: read-out: ka (association rate constant); for koff: read-out: kd (dissociation rate constant)
T1 construct: mouse PPARγ2 (residues 230–505) were expressed as N-terminal GST-tagged proteins; made in house; host or cells: E. coli BL21(DE3)
T1 sequence (P37238 230-505): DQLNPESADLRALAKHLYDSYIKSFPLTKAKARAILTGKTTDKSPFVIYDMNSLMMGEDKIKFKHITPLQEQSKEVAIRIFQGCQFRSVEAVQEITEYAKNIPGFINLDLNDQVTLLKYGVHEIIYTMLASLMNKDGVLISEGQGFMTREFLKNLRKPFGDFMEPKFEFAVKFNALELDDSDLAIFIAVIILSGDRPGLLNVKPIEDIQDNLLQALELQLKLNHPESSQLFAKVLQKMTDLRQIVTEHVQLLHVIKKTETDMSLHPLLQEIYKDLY
Description: PPARγ2 protein was immobilized on the sensor chip, and the response (in resonance unit; RU) as a result of binding was continuously recorded and presented graphically as a function of time[25]. The association rate (ka also known as on rate (kon)), dissociation rate (kd also known as off rate (koff)), and equilibrium dissociation constant (KD) were calculated using the Scrubber 2 program (Table 2).
The recombinant ligand-binding domains (LBDs) of mouse PPARγ2 (residues 230–505) were expressed as N-terminal GST-tagged proteins using the pGEX4T3 vector. pGXE4T3-mPPARγ2-LBD plasmid was transfected into BL21(DE3) competent cells and the cells were grown in LB medium containing 50 μg/mL ampicillin at 37 °C to an O. D. 600 of 0.6–0.8. The expression of PPARγ2-LBD was induced by the addition of 0.2 mM isopropyl β-D-thiogalactoside (IPTG). After treatment for 24 h at 22 °C, the cells were harvested and disrupted using sonication buffer [25 mM HEPES (pH 7.5), 150 mM NaCl, 1% NP-40, 0.25% sodium deoxycholate, 10% glycerol, 25 mM NaF, 1 mM EDTA, 1 mM Na3VO4, 250 μM PMSF, 10 μg/mL leupeptin, and 10 μg/ml aprotinin]. The supernatant was applied to glutathione-Sepharose beads for 24 h at 4 °C. The bound GST fusion proteins were washed with the sonication buffer and eluted by elution buffer [25 mM glutathione, 50 mM Tris pH 8.8, 200 mM NaCl].
Immobilization of the protein on the hydrophilic carboxymethylated dextran matrix of the sensor chip (Reichert) was carried out using a standard primary amine coupling reaction. Free carboxyl groups on the surface were modified by injecting a mixture of 0.1 M 1-ethyl-3-(3-dimethylaminopropyl) carbodiimide hydrochloride and 0.05 M N-hydroxysuccinimide at a flow rate of 20 μL/min to generate a reactive succinimide ester surface. Baseline equilibration was achieved by flushing the chip with PBS buffer for 1–2 h. All of the SPR data was collected at 25 °C with PBS as running buffer at a constant flow of 30 μL/min. All the sensorgrams were processed by using automatic correction for nonspecific bulk refractive index effects. All the kinetic analyses of the binding to PPARγ2-LBD were calculated using the Scrubber2 program (Bio-Logic Software).

Compound: COc1cc2cc3n(c(=O)c2cc1OC)CNc1ccc(Cl)cc1-3 [Compound 8n, 2-Chloro-10,11-dimethoxy-5H-isoquinolino[2,3-c]quinazolin-8(6H)-one]
- viability at 25 µM [1]: > 70%
- C/EBPα and PPARγ expression, protein and RNA levels (3T3-L1 cells): inhibited

Compound: COc1cc2cc3n(c(=O)c2cc1OC)CNc1cc(Cl)ccc1-3 [Compound 8o, 3-Chloro-10,11-dimethoxy-5H-isoquinolino[2,3-c]quinazolin-8(6H)-one]
- viability at 25 µM [1]: > 70%
- Kd (PPARγ2-LBD): 146 µM
- kon (PPARγ2-LBD): 24 M⁻¹ s⁻¹
- koff (PPARγ2-LBD): 0.00351 s⁻¹
- binding affinity relative to GW9662 (less than) (PPARγ2-LBD; ratio of KD values): 37 folds
- binding affinity relative to rosiglitazone (more than) (PPARγ2-LBD; ratio of KD values): 4 folds
- C/EBPα and PPARγ expression, protein and RNA levels (3T3-L1 cells): inhibited
- mRNA expression of adiponectin and fatty acid synthase (FAS) (3T3-L1 cells): strongly reduced

Compound: O=C(Nc1ccccc1)c1cc([N+](=O)[O-])ccc1Cl [GW9662, reference compound]
- Kd (PPARγ2-LBD): 3.91 µM
- kon (PPARγ2-LBD): 15.1 M⁻¹ s⁻¹
- koff (PPARγ2-LBD): 5.9e-05 s⁻¹
